Data taken from patent US12612408B2, “Pyrazolone-fused pyrimidine compound, preparation method for same and applications thereof” (SHANGHAI PHARMACEUTICALS HOLDING CO., LTD., priority 2019, dated 2026).
Where two headings read alike, the source gives them in different places. Each block holds one compound with its values, some of them ahead of it.

Assays:
[1] = Bioavailability test in vivo in mice (pharmacokinetics, iv and intragastric); set-up: species or system ICR mice; conditions: for Cmax / MRT / Tmax / clearance / half-life / Vd / bioavailability: ICR, mouse, plasma; for bioavailability: po 10 mg/kg vs iv 3 mg/kg, read-out: F (absolute bioavailability)
Description: 404.6 μL of DMSO was added to the compound powder of the present disclosure until the compound was completely dissolved, and 50 mg/mL mother liquor was prepared in a clarified state.
The compound of the present disclosure: 24 μL of mother liquor was accurately measured, diluted to 4 mL according to the ratio of 0.9% normal saline:PEG400=8:2, the preparation concentration was 0.3 mg/mL, the solution was in a clarified state, and it was used as intravenous administration solution. In addition, 80 μL mother liquor was accurately measured, and 0.5% CMC-Na was added to 8 mL to grind it into a uniform suspension with a concentration of 0.5 mg/mL, which was used as intragastric administration solution.
(§1) Intravenous group: 24 ICR mice, 20±2 g, were given the intravenous administration solution of the compound of the present disclosure by intravenous injection, with the volume of 10 mL/kg, with the dose of 3 mg/kg, the blood was taken from the fundus venous plexus of mice, 2, 5, 15, 30, 60, 90, 120, 240, 360, 480, 600 and 1440 minutes before and after administration.
as §1, with “Intragastric group:” for “Intravenous group:”, “the intragastric” for “the intravenous”, “by intragastric” for “by intravenous”, “of 20” for “of 10”, “of 10” for “of 3”, “mice,” for “mice, 2,”
Blood sample was centrifuged at 8000 rpm for 5 min, and the plasma was stored in a centrifuge tube at −20° C. for later use.
300 μL of acetonitrile containing internal standard (Propranolol, 25 ng/mL) was added to 50 μL of plasma samples to precipitate protein, vortexed for 10 min, 6000 g, 4° C., centrifuged for 10 min; the supernatant before intravenous injection for 1 hour was taken, diluted 10 times with acetonitrile containing internal standard, the rest supernatant was kept undiluted, centrifuged for 10 min again at 6000 g, 4° C., and the supernatant was taken and then injected into a 96-well plate.
Dose; peak concentration: Cmax; peak time: Tmax; area under the drug-time curve from AUClast 0 to time t; half-life: T1/2; mean retention time: MRT; clearance: Cl; apparent distribution volume: Vz; steady-state distributed volume: Vss; absolute bioavailability: F.
The pharmacokinetic parameters of the compound in mice after intravenous injection or intragastric administration were shown in Table 4 and Table 5 below.

WEE1 kinase = biological target: T1, WEE1 kinase (Homo sapiens, UniProt P30291); assay: Inhibitory effect of compound on WEE1 kinase in vitro (ELISA); assay type: biochemical; conditions: ATP concentration of Km
T1 construct: purchased CarnaBiosciences, Inc. 05-177
Description: The tested compounds were screened on WEE1 kinase with ATP concentration of Km by ELISA. Compounds were screened on WEE1 kinase to evaluate the kinase inhibitory activity of the tested compounds. In the detection process, the initial concentration of the tested compounds was all selected as 100 nM, and each compound was selected with 6 gradient dilution concentrations, the gradient dilution ratio was 4-fold, and two replicate wells were detected for each concentration, MK1775 was used as the standard control.
WEE1, purchased from CarnaBiosciences, Inc., Item No. 05-177; dimethyl sulfoxide, purchased from Sigma-Aldrich, Item No. D8418; ATP, purchased from Sigma-Aldrich, Item No. A7699; DTT solution, purchased from Sigma-Aldrich, Item No. 43816; protein tyrosine kinase (PTK) substrate (poly-Glu-Tyr), purchased from Sigma-Aldrich, Item No. P4476; P-Tyr (PY99), purchased from Santa Cruz, Item No. sc-7020; Anti-mouse IgG HRP-linked Antibody, purchased from Santa Cruz, Item No. 7076S; TMB liquid Substrate System, purchased from Sigma-Aldrich, Item No. T0440; Costar Stripwell Microplate No Lid 1×8 Flat Bottom, Certified High Binding, purchased from Sigma-Aldrich, Item No. 42592; 96-well compound plate, purchased from Thermo Scientific, Item No. 267245.
• 1. Coating substrate: 1) An appropriate volume of substrate storage solution protein tyrosine kinase (PTK) substrate (poly-Glu-Tyr) was taken, diluted 10 times with PBS, and the concentration was diluted from […]. The mixture was added to a high adsorption 96-well plate at 125 μL per well. The plate was placed in an incubator at 37° C. for overnight coating. 2) After 24 hours, the 96-well plate was taken out, the liquid in the 96-well plate was poured out, cleaned with washing buffer for 3 times, and the incubator at 37° C. was inverted and dried for 2 hours. • 2. Compound preparation and transfer: 1) compound dilution: 10 mM of the test compound storage solution was taken, the compound in 96-well compound plate was diluted with DMSO in multiple steps to obtain the initial concentration of 100× compound as the first concentration, and then DMSO was used for 4-fold gradient dilution, for a total of 6 concentrations; after that, 2 μL of the gradient dilution solution was added to 48 μL of 1× reaction buffer respectively to prepare 4× compound; 2) 4× compounds were transferred: 10 μL of 4× compounds from the 96-well compound plate configured in the previous step were transferred into the dried high adsorption 96-well plate; 10 μL of the following liquids were added to the compound-free control wells and ATP-control wells: 2 μL of DMSO was added to 48 μL of 1× reaction buffer. • 3. Enzyme reaction stage: 1) WEE1 kinase and ATP were prepared into 2× enzyme solution and 4×ATP solution respectively with 1× reaction buffer. In this screening, the final concentration of WEE1 kinase was: 0.15 ng/μL and the final concentration of ATP was: […]; 2) 20 μL of enzyme solution of 2 was added to the high adsorption 96-well plate; 3) 10 μL of 4×ATP solution was added to the high adsorption 96-well plate and 10 μL of 1× reaction buffer was added to the ATP-control group; 4) the plate was placed in HERAEUS Multifuge X1R centrifuge at 2000 rpm for 20 s and then placed at room temperature and reacted for 60 min. • 4. Reaction termination stage: 1) the reaction mixture in the plate was poured out, 200 μL of washing buffer was added to each well, and washed for 5 times; the primary antibody P-Tyr (PY99) (dilution ratio 1:2000) was added, 100 μL per well, at room temperature for 30 min. 2) The primary antibody in the plate was poured out, 200 μL of washing buffer was added to each well, and washed for 5 times; the second antibody Anti-mouse IgG HRP-linked Antibody (dilution ratio 1:2000) was added, 100 μL per well, at room temperature for 30 min.

[2] = iv, 3 mg/kg, iv, 3 mg/kg, read-out: Vss
[3] = iv, 3 mg/kg, iv, 3 mg/kg, read-out: Vz

T1 sequence (P30291 whole entry): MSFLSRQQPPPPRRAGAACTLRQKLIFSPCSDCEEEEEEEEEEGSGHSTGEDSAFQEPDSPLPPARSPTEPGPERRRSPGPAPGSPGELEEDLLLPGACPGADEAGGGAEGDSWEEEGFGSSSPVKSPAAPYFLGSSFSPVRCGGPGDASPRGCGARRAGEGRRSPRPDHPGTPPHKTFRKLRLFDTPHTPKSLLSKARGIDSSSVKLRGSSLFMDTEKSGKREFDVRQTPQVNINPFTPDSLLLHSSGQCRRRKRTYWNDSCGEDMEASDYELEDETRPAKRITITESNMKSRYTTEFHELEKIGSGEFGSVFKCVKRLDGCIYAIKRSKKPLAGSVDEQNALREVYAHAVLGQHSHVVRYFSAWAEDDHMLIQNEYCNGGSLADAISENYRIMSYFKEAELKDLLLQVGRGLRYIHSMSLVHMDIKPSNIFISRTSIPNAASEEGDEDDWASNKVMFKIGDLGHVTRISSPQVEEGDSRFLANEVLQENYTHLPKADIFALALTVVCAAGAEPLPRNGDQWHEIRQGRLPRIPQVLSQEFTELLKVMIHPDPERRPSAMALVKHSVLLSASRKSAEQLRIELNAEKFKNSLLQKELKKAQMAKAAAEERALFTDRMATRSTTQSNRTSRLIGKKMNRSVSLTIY

Compound: C=CCn1c(=O)c2cnc(Nc3ccc(C4CCC(N5CCC5)CC4)cc3)nc2n1-c1cccc(C(C)(C)O)n1 (centres unmarked) [Compound I-8]
Cmax ([1]; iv, 3 mg/kg): 644 ± 132 ng/mL
MRT ([1]; iv, 3 mg/kg): 1.11 ± 0.08 h
Tmax ([1]; iv, 3 mg/kg): 0.03 h
clearance ([1]; iv, 3 mg/kg): 155 mL/min/kg
half-life ([1]; iv, 3 mg/kg): 1.22 ± 0.1 h
Vd [1, 2]: 10.3 ± 0.86 L/kg
Vd [1, 3]: 16.3 ± 2.48 L/kg
bioavailability [1]: 60.3%
Cmax ([1]; po (intragastric), 10 mg/kg): 58.1 ± 7.09 ng/mL
MRT ([1]; po (intragastric), 10 mg/kg): 3.47 ± 1.22 h
Tmax ([1]; po (intragastric), 10 mg/kg): 1.67 ± 0.29 h
half-life ([1]; po (intragastric), 10 mg/kg): 1.57 ± 0.39 h
AUClast ([1]; iv, 3 mg/kg): 317.5 ± 34.41 (h) (ng/mL)
AUClast ([1]; po (intragastric), 10 mg/kg): 637.9 ± 302.3 (h) (ng/mL)
IC50 (WEE1 kinase): 1.52 nM

Compound: C=CCn1c(=O)c2cnc(Nc3ccc(C4CCC(N(C)C)CC4)cc3)nc2n1-c1cccc(C(C)(C)O)n1 (single isomer, unassigned) [Compound I-1-1]
Cmax ([1]; iv, 3 mg/kg): 701 ± 142 ng/mL
MRT ([1]; iv, 3 mg/kg): 1.75 ± 0.46 h
Tmax ([1]; iv, 3 mg/kg): 0.03 h
clearance ([1]; iv, 3 mg/kg): 129 mL/min/kg
half-life ([1]; iv, 3 mg/kg): 4.31 ± 1.51 h
Vd [1, 2]: 13.6 ± 3.95 L/kg
Vd [1, 3]: 48.5 ± 18.4 L/kg
bioavailability [1]: 42.6%
Cmax ([1]; po (intragastric), 10 mg/kg): 245 ± 220 ng/mL
MRT ([1]; po (intragastric), 10 mg/kg): 4.33 ± 9.02 h
Tmax ([1]; po (intragastric), 10 mg/kg): 2.5 ± 1.32 h
half-life ([1]; po (intragastric), 10 mg/kg): 3.1 ± 9.02 h
AUClast ([1]; iv, 3 mg/kg): 372.5 ± 24.38 (h) (ng/mL)
AUClast ([1]; po (intragastric), 10 mg/kg): 528.6 ± 331.1 (h) (ng/mL)
IC50 (WEE1 kinase): 1.9 nM

Compound: C=CCn1c(=O)c2cnc(Nc3ccc(C4CCC(C(=O)N5CCC5)CC4)cc3)nc2n1-c1cccc(C(C)(C)O)n1 (centres unmarked) [Compound I-7]
IC50 (WEE1 kinase): 6.53 nM

Compound: C=CCn1c(=O)c2cnc(Nc3ccc(C4CCC(N5CCCC5)CC4)cc3)nc2n1-c1cccc(C(C)(C)O)n1 (single isomer, unassigned) [Compound I-3-2]
IC50 (WEE1 kinase): 0.66 nM

Compound: C=CCn1c(=O)c2cnc(Nc3ccc(C4CCC(N5CCC5)CC4)cc3)nc2n1-c1cccc(C(C)(C)O)n1 (single isomer, unassigned) [Compound I-8-2]
IC50 (WEE1 kinase): 3.52 nM

Compound: C=CCn1c(=O)c2cnc(Nc3ccc(C4CCC(N5CCOCC5)CC4)cc3)nc2n1-c1cccc(C(C)(C)O)n1 (centres unmarked) [Compound I-2]
IC50 (WEE1 kinase): 2.57 nM

Compound: C=CCn1c(=O)c2cnc(Nc3ccc(C4CCC(N(C)C)CC4)cc3)nc2n1-c1cccc(C(C)(C)O)n1 (single isomer, unassigned) [Compound I-1-2]
IC50 (WEE1 kinase): 2.08 nM

Next, values leading:

IC50 (WEE1 kinase): 1.99 nM
Compound: C=CCn1c(=O)c2cnc(Nc3ccc(C4CCC(N5CCOC5=O)CC4)cc3)nc2n1-c1cccc(C2(O)COC2)n1 (centres unmarked) [Compound I-37]

IC50 (WEE1 kinase): 2.92 nM
Compound: C=CCn1c(=O)c2cnc(Nc3ccc(C4CCC(N5CCC5)CC4)cc3)nc2n1-c1cccc(C2(O)COC2)n1 (single isomer, unassigned) [Compound I-36-2]

IC50 (WEE1 kinase): 1.52 nM
Compound: C=CCn1c(=O)c2cnc(Nc3ccc(C4CCC(N(C)C)CC4)cc3)nc2n1-c1cccc(C2(O)COC2)n1 (single isomer, unassigned) [Compound I-15-1]

IC50 (WEE1 kinase): 0.71 nM
Compound: C=CCn1c(=O)c2cnc(Nc3ccc(C4CCC(C#N)CC4)cc3)nc2n1-c1cccc(C(C)(C)O)n1 (centres unmarked) [Compound I-23]

IC50 (WEE1 kinase): 3.89 nM
Compound: C=CCn1c(=O)c2cnc(Nc3ccc(C4CCC(NS(C)(=O)=O)CC4)cc3)nc2n1-c1cccc(C(C)(C)O)n1 (centres unmarked) [Compound I-19, N-(4-(4-((2-allyl-1-(6-(2-hydroxypropan-2-yl)pyridin-2-yl)-3-oxo-2,3-dihydro-1H-pyrazolo[3,4-d]pyrimidin-6-yl)amino)phenyl)cyclohexyl)methanesulfonamide]

IC50 (WEE1 kinase): 4.05 nM
Compound: C=CCn1c(=O)c2cnc(Nc3ccc(C4CCC(C(=O)NC5CC5)CC4)cc3)nc2n1-c1cccc(C(C)(C)O)n1 (centres unmarked) [Compound I-17]

IC50 (WEE1 kinase): 1.68 nM
Compound: C=CCn1c(=O)c2cnc(Nc3ccc(C4CCC(C#N)CC4)cc3)nc2n1-c1cccc(C2(O)COC2)n1 (centres unmarked) [Compound I-38]

Cmax ([1]; iv, 3 mg/kg): 646 ± 76.8 ng/mL
MRT ([1]; iv, 3 mg/kg): 0.86 ± 0.16 h
Tmax ([1]; iv, 3 mg/kg): 0.03 h
clearance ([1]; iv, 3 mg/kg): 188 mL/min/kg
half-life ([1]; iv, 3 mg/kg): 1.37 ± 0.33 h
Vd [1, 2]: 9.69 ± 0.96 L/kg
Vd [1, 3]: 22.2 ± 3.29 L/kg
bioavailability [1]: 9.19%
Cmax ([1]; po (intragastric), 10 mg/kg): 27.8 ± 4.76 ng/mL
MRT ([1]; po (intragastric), 10 mg/kg): 3.78 ± 1.56 h
Tmax ([1]; po (intragastric), 10 mg/kg): 1.67 ± 2.02 h
half-life ([1]; po (intragastric), 10 mg/kg): 2.51 ± 1.85 h
AUClast ([1]; iv, 3 mg/kg): 261.52 ± 26.93 (h) (ng/mL)
AUClast ([1]; po (intragastric), 10 mg/kg): 80.15 ± 9.62 (h) (ng/mL)
IC50 (WEE1 kinase): 1.98 nM
Compound: C=CCn1c(=O)c2cnc(Nc3ccc4c(c3)CCC(N(C)C)C4)nc2n1-c1cccc(C(C)(C)O)n1 (centres unmarked) [Control 2, reference compound]

IC50 (WEE1 kinase): 7.39 nM
Compound: C=CCn1c(=O)c2cnc(Nc3ccc(C4CCC(=NOC)CC4)cc3)nc2n1-c1cccc(C(C)(C)O)n1 (centres unmarked) [Compound I-32]

IC50 (WEE1 kinase): 3.45 nM
Compound: C=CCn1c(=O)c2cnc(Nc3ccc(C4CCC(NC(=N)N)CC4)cc3)nc2n1-c1cccc(C(C)(C)O)n1 (centres unmarked) [Compound I-20]
